Holding throughout (assay): KINOMEscan competition binding
In one assay the target is T1, LKB1 (Homo sapiens, UniProt Q15831).
T1 sequence (Q15831 1-433): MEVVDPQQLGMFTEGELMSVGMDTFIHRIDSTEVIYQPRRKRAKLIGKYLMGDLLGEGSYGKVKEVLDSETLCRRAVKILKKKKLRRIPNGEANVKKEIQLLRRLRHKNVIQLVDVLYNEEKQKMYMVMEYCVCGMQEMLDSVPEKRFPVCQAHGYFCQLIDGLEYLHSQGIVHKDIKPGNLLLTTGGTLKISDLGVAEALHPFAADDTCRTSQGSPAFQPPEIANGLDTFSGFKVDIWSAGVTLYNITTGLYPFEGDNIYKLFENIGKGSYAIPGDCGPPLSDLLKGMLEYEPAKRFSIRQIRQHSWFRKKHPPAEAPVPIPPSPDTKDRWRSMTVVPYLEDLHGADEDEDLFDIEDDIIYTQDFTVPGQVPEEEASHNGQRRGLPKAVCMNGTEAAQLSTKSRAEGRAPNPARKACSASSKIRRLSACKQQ
The following applies: read-out: %Inh LKB1.

The next assay has as its target AKT1 (Homo sapiens, UniProt P31749). The following applies: read-out: %Inh AKT1.
A further assay deals with T2, CDKL5 (Homo sapiens, UniProt O76039).
T2 sequence (O76039 1-960): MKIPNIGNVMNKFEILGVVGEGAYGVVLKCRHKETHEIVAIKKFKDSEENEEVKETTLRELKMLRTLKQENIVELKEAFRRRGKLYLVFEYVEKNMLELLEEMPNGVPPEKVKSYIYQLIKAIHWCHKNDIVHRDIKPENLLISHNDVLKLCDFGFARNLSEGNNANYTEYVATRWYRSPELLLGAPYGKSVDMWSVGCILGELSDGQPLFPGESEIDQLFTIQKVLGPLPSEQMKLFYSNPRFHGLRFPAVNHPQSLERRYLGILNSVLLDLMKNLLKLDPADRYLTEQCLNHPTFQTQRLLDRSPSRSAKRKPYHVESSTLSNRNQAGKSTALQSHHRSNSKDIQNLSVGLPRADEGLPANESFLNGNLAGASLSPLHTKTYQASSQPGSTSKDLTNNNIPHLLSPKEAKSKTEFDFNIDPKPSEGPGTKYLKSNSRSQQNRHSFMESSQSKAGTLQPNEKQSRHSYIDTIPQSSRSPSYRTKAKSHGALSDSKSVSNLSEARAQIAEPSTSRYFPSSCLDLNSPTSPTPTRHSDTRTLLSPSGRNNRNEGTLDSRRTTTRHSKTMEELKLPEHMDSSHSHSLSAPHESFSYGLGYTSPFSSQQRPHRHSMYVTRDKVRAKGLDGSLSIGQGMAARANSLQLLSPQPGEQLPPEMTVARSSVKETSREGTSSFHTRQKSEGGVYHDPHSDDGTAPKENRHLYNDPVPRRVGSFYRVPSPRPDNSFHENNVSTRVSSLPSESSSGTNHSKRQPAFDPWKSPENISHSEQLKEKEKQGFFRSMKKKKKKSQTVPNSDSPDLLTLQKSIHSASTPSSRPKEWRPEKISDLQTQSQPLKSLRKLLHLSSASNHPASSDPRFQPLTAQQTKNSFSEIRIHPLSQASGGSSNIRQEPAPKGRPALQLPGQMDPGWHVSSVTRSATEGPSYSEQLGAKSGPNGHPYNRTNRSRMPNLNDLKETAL
The following applies: read-out: %Inh CDKL5.

The target in the next assay is T3, ACVR1B (Homo sapiens, UniProt P36896).
T3 sequence (P36896 24-505): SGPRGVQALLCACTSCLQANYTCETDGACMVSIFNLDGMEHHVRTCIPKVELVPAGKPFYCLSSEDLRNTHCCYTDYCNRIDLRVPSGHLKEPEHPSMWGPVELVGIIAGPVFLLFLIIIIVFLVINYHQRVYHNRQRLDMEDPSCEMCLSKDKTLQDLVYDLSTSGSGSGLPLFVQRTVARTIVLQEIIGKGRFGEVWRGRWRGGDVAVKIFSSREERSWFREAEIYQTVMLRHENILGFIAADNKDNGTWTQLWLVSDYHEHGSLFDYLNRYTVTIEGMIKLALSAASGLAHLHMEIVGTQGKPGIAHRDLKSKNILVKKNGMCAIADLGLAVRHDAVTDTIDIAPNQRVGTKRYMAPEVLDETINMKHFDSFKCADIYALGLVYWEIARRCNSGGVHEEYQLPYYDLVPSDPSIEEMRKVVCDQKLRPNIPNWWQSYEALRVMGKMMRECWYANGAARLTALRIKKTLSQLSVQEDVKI
The following applies: read-out: %Inh ACVR1B.

A further assay addresses T4, DYRK2 (Homo sapiens, UniProt Q92630).
T4 sequence (Q92630 1-601): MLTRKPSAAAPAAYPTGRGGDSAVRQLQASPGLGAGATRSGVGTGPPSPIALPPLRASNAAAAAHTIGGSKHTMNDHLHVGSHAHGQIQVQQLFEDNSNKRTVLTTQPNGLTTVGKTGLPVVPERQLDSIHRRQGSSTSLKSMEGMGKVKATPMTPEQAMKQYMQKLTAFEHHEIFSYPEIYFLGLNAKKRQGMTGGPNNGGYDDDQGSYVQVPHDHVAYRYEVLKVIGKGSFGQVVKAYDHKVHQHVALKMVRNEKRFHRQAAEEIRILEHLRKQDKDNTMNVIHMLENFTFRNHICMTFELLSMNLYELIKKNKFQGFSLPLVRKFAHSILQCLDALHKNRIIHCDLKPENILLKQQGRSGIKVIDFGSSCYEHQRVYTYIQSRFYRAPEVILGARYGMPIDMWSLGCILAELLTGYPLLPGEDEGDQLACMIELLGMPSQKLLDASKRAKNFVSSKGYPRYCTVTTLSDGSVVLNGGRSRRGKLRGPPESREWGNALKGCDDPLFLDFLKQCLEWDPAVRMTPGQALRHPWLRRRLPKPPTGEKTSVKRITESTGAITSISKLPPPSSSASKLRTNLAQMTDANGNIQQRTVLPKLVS
The following applies: read-out: %Inh DYRK2.

Consider five compounds from PMC5540273, “Progress towards a public chemogenomic set for protein kinases and a call for contributions” (PLoS ONE, 2017).

Chain of AKT1 (P31749 whole entry): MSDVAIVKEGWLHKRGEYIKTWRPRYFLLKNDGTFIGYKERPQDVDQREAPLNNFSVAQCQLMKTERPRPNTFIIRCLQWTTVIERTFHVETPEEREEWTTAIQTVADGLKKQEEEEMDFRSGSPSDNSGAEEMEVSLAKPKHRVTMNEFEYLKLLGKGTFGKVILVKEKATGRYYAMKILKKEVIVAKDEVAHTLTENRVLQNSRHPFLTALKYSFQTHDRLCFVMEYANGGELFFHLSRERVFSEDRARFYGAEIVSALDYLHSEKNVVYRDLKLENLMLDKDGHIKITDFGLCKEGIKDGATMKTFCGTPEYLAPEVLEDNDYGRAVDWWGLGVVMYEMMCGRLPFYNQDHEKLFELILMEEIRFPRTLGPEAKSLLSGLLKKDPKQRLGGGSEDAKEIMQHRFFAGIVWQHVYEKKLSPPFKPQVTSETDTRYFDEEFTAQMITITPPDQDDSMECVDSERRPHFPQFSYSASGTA

Regarding `O=c1cc(N2CCOCC2)nc2n(Cc3cccc(Cl)c3Cl)c(C3CC3)nn12` [UNC10225469A], the inhibition at 1 µM came out at 15% at LKB1; 12% at AKT1; 0% at CDKL5; 0% on ACVR1B; 1% on DYRK2.

`COc1cccc(OC)c1C(=O)Nc1cccc(-c2nn3ccccc3c2-c2ccnc(Nc3cccc(F)c3)n2)c1` [UNC10225310A]: the inhibition at 1 µM on LKB1 is 6%; on AKT1 it was 4%; at CDKL5, 0%; on ACVR1B it was 15%; at DYRK2, 0%.

With `CS(=O)(=O)Cc1ccc(Nc2nccc(-c3c(-c4cccc(NC(=O)C5CCCCC5)c4)nn4ncccc34)n2)cc1` [UNC10225159A], the inhibition at 1 µM on LKB1 came out at 0%; at AKT1 it was 23%; at CDKL5, 33%; on ACVR1B, 0%; on DYRK2 it was 5%.

On to `Cc1ccc(NC(=O)Nc2cccc(C(F)(F)F)c2)cc1` [UNC10225187A], for which the inhibition at 1 µM at LKB1 was found to be 16%; on AKT1, 12%; at CDKL5 it was 0%; at ACVR1B, 85%; on DYRK2, 0%.

Take `Cn1cc(-c2cnc(N)c3c(-c4ccc5c(c4)CCN5C(=O)Cc4ccccc4)csc23)cn1` [UNC10225012A]: the inhibition at 1 µM at LKB1 was found to be 0%; on AKT1, 14%; on CDKL5, 0%; at ACVR1B it was 9%; at DYRK2, 8%.
